# Assay results published in the supplement of paper PMC10307832.
# Tests used:
# Test in all cases: relative viability (nuclei count vs DMSO), 5 days (fraction); higher = more cells survive
# Mirin + Pemetrexed = compound: N=C1NC(=O)/C(=C/c2ccc(O)cc2)S1 [Mirin] + Nc1nc2[nH]cc(CCc3ccc(C(=O)N[C@@H](CCC(=O)O)C(=O)O)cc3)c2c(=O)[nH]1 [Pemetrexed] (partner 0.2 µM)
# Outline: (§1)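 Lung cancer cell lines in 1536-well plates got either a single drug or a fixed anchor-drug dose together with five library-drug doses (not always all listed) in √10 steps, by pin tool, on the day after seeding. Nuclei were counted after 5 days, and relative viability is the treated-to-vehicle ratio of nuclei counts. Values are medians of duplicate plates.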
# [1] = compound: CCn1c(-c2nonc2N)nc2cnc(Oc3cccc(NC(=O)c4ccc(OCCN5CCOCC5)cc4)c3)cc21 + CC(=O)c1c(C)c2cnc(Nc3ccc(N4CCNCC4)cn3)nc2n(C2CCCC2)c1=O [Palbociclib] (partner 0.5 µM)
# Outline: as §1
# [2] = compound: CCC1=CN=CN=C1N2CCN(CC2)CC3=NC4=C(N3)C=C(C=C4)C(F)(F)F + C[C@]1(O)C[C@@H](c2nc(-c3ccc4ccc(-c5ccccc5)nc4c3)c3c(N)nccn32)C1 [Linsitinib] (partner 1 µM)
# Outline: as §1
# [3] = compound: CCC1=CN=CN=C1N2CCN(CC2)CC3=NC4=C(N3)C=C(C=C4)C(F)(F)F + CC(C)C[C@H](NC(=O)[C@H](Cc1ccccc1)NC(=O)c1cnccn1)B(O)O [Bortezomib] (partner 0.002 µM)
# Outline: as §1
Cell Line,relative viability (Mirin + Pemetrexed; first compound 0.25 µM),relative viability (Mirin + Pemetrexed; first compound 0.7906 µM),relative viability (Mirin + Pemetrexed; first compound 2.5 µM),relative viability (Mirin + Pemetrexed; first compound 7.906 µM),relative viability (Mirin + Pemetrexed; first compound 25 µM),relative viability ([1]; first compound 0.04 µM),relative viability ([1]; first compound 0.1265 µM),relative viability ([1]; first compound 0.4 µM),relative viability ([1]; first compound 1.265 µM),relative viability ([1]; first compound 4 µM),relative viability ([2]; first compound 0.04 µM),relative viability ([2]; first compound 0.1265 µM),relative viability ([2]; first compound 0.4 µM),relative viability ([2]; first compound 1.265 µM),relative viability ([2]; first compound 4 µM),relative viability ([3]; first compound 0.04 µM),relative viability ([3]; first compound 0.1265 µM),relative viability ([3]; first compound 0.4 µM),relative viability ([3]; first compound 1.265 µM),relative viability ([3]; first compound 4 µM)
A-427,1,0.957,1.02,0.991,0.934,0.46,0.495,0.412,0.283,0.275,1.12,1.11,1.03,1.05,0.857,0.926,0.896,0.936,0.878,0.989
NCI-H441,0.227,0.262,0.251,0.261,0.251,0.26,0.234,0.157,0.226,0.25,0.526,0.553,0.444,0.489,0.497,0.523,0.366,0.301,0.356,0.383
NCI-H2023,0.254,0.258,0.218,0.247,0.156,0.415,0.392,0.337,0.215,0.202,0.714,0.658,0.664,0.757,0.746,1.04,1.03,0.964,0.837,1.17
NCI-H647,0.198,0.161,0.146,0.172,0.111,0.494,0.297,0.317,0.235,0.297,1.33,1.18,,1.24,1.31,1.3,0.938,,0.884,0.955
NCI-H3122,0.195,0.213,0.209,0.208,0.264,0.209,0.182,0.184,0.19,0.19,1.11,1.11,1.01,1.08,0.93,1.11,0.968,1,1.03,1.05
LCLC-103H,0.441,0.523,0.487,0.425,0.435,0.478,0.464,0.485,0.429,0.518,1.11,1.13,0.999,1.17,1.2,1.04,0.959,1.07,1.07,1.18
NCI-H520,0.654,0.591,0.7,0.545,0.449,0.242,0.207,0.199,0.176,0.175,0.908,0.93,0.886,0.773,0.861,0.699,0.48,0.642,0.534,0.472
NCI-H1755,0.38,0.402,0.404,0.348,0.384,0.457,0.46,0.397,0.454,0.424,1.02,0.938,0.955,0.948,0.944,1.02,0.882,0.953,0.816,1.06
NCI-H1734,0.441,0.44,0.414,0.355,0.346,0.335,0.365,0.293,0.319,0.267,0.971,0.836,0.946,,0.877,0.919,0.853,0.907,,0.854
EPLC-272H,0.371,0.307,0.309,0.323,0.192,0.391,0.406,0.302,0.316,0.296,1.07,0.96,1,1.43,1.33,0.696,0.885,0.829,1.43,1.08
NCI-H2228,0.394,0.301,0.291,0.315,0.364,0.852,0.8,0.652,0.683,0.644,0.343,0.629,0.814,0.576,0.689,1.29,1.11,1.19,1.05,1.11
